# Reference: patent US20140050670A1, “MULTIFUNCTIONAL NANOPARTICLES” (THE UNIVERSITY OF WESTERN AUSTRALIA, priority 2010, published 2014)
# Key:
# [1] = tested on: PC12 cells; assay: Intracellular calcium quantification after glutamate challenge (Fura-2); format: cell-based, rat; conditions: glutamate 10 mM, 24 hr; nanospheres 25 μg mL^−1, free lomerizine 1 μM; relative to ENP; dihydrochloride
# Description: The pH in early endosomes is mildly acidic and falls below 5 as endosomes mature, so release of lomerizine from nanospheres could be triggered under these conditions. Here, we administered lomerizine to PC12 cells using nanospheres, and measured intracellular calcium concentrations after glutamate challenge to see if intracellular release of lomerizine could be employed for neuroprotection. PC12 cells express both N- and L-type VGCCs, but not T-type channels, and in undifferentiated PC12 cells, glutamate exposure (1-10 mm) over 24 hr causes oxidative stress and increased [Ca^2+]i.
# Cells receiving nanosphere treatments were incubated with nanospheres containing lomerizine, with or without modification with PEI (LNP+PEI and LNP−PEI respectively), or nanospheres containing no lomerizine but with PEI modification (ENP). […]
# For experiments, cells were seeded in 24-well plates containing 10 mm glass coverslips coated with poly(l-lysine) at a cell density of 5.0×10^4 mL^−1. […] After a further 24 hr, [Ca^2+]i was quantified as follows. […] Fluorescent data were measured on a Hamamatsu Orca ER digital camera attached to an inverted Nikon TE2000-U microscope, and analysed using Metamorph v6.3. […] [Ca^2+]i was calculated according to the equation: […]
# [2] = humans; cited from earlier work
# [3] = rats, 24 hr after oral administration; cited from earlier work
# [4] = tested on: L-, T- and N-type Ca^2+ channels; conditions: cited from earlier work
# [5] = tested on: NMDA, kainate or AMPA binding sites; conditions: cited from earlier work
compound,measurement,setting,value
"COc1ccc(CN2CCN(C(c3ccc(F)cc3)c3ccc(F)cc3)CC2)c(OC)c1OC.Cl.Cl [Lomerizine, 1-[bis(4-fluorophenyl)methyl]-4-(2,3,4-trimethoxybenzyl)piperazine dihydrochloride]",intracellular calcium [Ca^2+]i after glutamate,[1],significant (p≦0.001) decrease
same,elimination half-life,[2],108 h
same,dose excreted in the feces,[3],51.7%
same,dose excreted in urine,[3],4.1%
same,calcium channel blockade selectivity,[4],"selectively blocks L- and T-type Ca^2+ channels, but not N-type channels"
same,"affinity for NMDA, kainate or AMPA binding sites",[5],no reported affinity
